Values of other authors as cited in US5476933A, “Azepine synthesis via a diels-alder reaction” (priority 1994, dated 1995).

Legend:
[1] = biological target: PCP receptor; details: Wong et al. 1986; cited from earlier work
[2] = tested on: rodents; details: literature; cited from earlier work

C[C@]12N[C@H](Cc3ccccc31)c1ccccc12 [MK-801]
Kd [1]: ~3 nM | PCP-like behavioral effects, in words [2]: adverse PCP-like behavioral side effects
